The results in this text go back to US12139492B2 (Endotarget Inc., priority 2021, dated 2024).

One test relates to Mino cells. Nature of the test: Antiproliferative effect, MTS cell viability assay, Mino cells. In kind it is cell-based. To be noted: Homo sapiens, MINO, Mino mantle cell lymphoma cells; read-out: IC50 (anti-proliferation) Mino cells. In short, it runs like this:
(§1)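 Absorbance at 490 nm of formazan, formed by metabolically active cells from MTS tetrazolium, served as the viability measure after a 72 h treatment across a 0.001–10 μM concentration series plus untreated control.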

Another test deals with JeKo-1 cells. Description: Antiproliferative effect, MTS cell viability assay, JeKo-1 cells. The test is classed as cell-based. To be noted: Homo sapiens; JeKo-1 mantle cell lymphoma cells; read-out: IC50 (anti-proliferation) JeKO-1 cells. Summed up:
as §1
(Tetrazolium assays rely on reduction of a dye to a coloured formazan, in cell work by metabolically active cells.)

The next test has as its target BTK (Homo sapiens, UniProt Q06187). Nature of the test: Degradation of BTK protein in Namalwa cells (Western blot; DC50, Dmax). To be noted: for DC50: cell line not given. A general note: A western blot detects proteins with antibodies after separation by electrophoresis.
[1] abbreviates: read-out: DC50 (BTK degradation), concentration giving 50% reduction of BTK expression level.
Where [2] appears, read: read-out: Dmax (BTK degradation).

Where two headings read alike, the source gives them in different places.

Chain of BTK (Q06187 whole entry): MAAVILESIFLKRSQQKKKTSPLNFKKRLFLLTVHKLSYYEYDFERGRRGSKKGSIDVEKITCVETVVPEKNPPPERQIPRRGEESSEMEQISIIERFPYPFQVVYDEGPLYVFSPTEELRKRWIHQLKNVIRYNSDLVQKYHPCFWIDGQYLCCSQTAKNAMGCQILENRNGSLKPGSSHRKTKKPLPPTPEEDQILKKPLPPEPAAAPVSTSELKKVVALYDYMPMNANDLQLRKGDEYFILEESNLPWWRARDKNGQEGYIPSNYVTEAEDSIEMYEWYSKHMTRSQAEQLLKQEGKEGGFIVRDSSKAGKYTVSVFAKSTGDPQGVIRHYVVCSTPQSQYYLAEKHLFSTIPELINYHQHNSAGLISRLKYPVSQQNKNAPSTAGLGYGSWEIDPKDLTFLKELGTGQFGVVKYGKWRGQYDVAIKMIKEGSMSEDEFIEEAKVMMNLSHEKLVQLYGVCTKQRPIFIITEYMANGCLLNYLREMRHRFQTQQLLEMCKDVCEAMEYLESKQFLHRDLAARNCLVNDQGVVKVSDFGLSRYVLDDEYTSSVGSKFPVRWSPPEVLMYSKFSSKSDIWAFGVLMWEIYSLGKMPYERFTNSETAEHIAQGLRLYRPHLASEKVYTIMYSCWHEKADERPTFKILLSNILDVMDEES

With `Nc1ncnc2c1c(-c1ccc(Oc3ccccc3)cc1)nn2C1CCN(C2CCN(C(=O)N3CCC(CCC4CCN(c5ccc6c(c5)CN(C5CCC(=O)NC5=O)C6=O)CC4)CC3)CC2)CC1` (stereo not shown) [Compound 256, 3-(5-(4-(2-(1-(4-(4-amino-3-(4-phenoxyphenyl)-1H-pyrazolo[3,4-d]pyrimidin-1-yl)-[1,4′-bipiperidine]-1′-carbonyl)piperidin-4-yl)ethyl)piperidin-1-yl)-1-oxoisoindolin-2-yl)piperidine-2,6-dione], the figures for the IC50 in the test with Mino cells and with JeKo-1 cells were below 1000 nM and 1000 to 10000 nM, respectively. Besides, on BTK, the Dmax – broadly, the greatest extent of degradation seen – was above 90%. Also, the 50% degradation concentration (DC50) (in general, the midpoint of the concentration-degradation curve) on BTK (BTK degradation) was below 10 nM.
For `NC(=O)c1c(-c2ccc(Oc3ccccc3)cc2)nn2c1NCCC2C1CCN(CC2CCN(CCN3CCC(c4ccc5c(c4)CN(C4CCC(=O)NC4=O)C5=O)CC3)CC2)CC1` (stereo not shown) [Compound 320, 7-(1-((1-(2-(4-(2-(2,6-dioxopiperidin-3-yl)-1-oxoisoindolin-5-yl)piperidin-1-yl)ethyl)piperidin-4-yl)methyl)piperidin-4-yl)-2-(4-phenoxyphenyl)-4,5,6,7-tetrahydropyrazolo[1,5-a]pyrimidine-3-carboxamide], in that order: 1000 to 10000 nM, 1000 to 10000 nM, above 90% and 10 to 50 nM.
`NC(=O)c1c(-c2ccc(Oc3ccccc3)cc2)nn2c1NCC[C@H]2C1CCN(C2CCN(CC3CCN(c4ccc5c(c4)CN(C4CCC(=O)NC4=O)C5=O)CC3)CC2)CC1` (stereo partly drawn) [Compound 322, (7S)-7-(1′-((1-(2-(2,6-dioxopiperidin-3-yl)-1-oxoisoindolin-5-yl)piperidin-4-yl)methyl)-[1,4′-bipiperidin]-4-yl)-2-(4-phenoxyphenyl)-4,5,6,7-tetrahydropyrazolo[1,5-a]pyrimidine-3-carboxamide]: the IC50 in the test on Mino cells and with JeKo-1 cells was 1000 to 10000 nM throughout. Besides, the Dmax on BTK was above 90%. At BTK (BTK degradation), the DC50 lay in the range of 10 to 50 nM.
On to `Nc1ncnc2c1c(-c1ccc(Oc3ccccc3)cc1)nn2[C@@H]1CCCN(C2CCN(C(=O)N3CCC(CCCC4CCN(c5ccc6c(c5)C(=O)N(C5CCC(=O)NC5=O)C6=O)CC4)CC3)CC2)C1` (stereo partly drawn) [Compound 195, 5-(4-(3-(1-((R)-3-(4-amino-3-(4-phenoxyphenyl)-1H-pyrazolo[3,4-d]pyrimidin-1-yl)-[1,4′-bipiperidine]-1′-carbonyl)piperidin-4-yl)propyl)piperidin-1-yl)-2-(2,6-dioxopiperidin-3-yl)isoindoline-1,3-dione], for which the IC50 with Mino cells is above 10000 nM; in the test with JeKo-1 cells it was 1000 to 10000 nM. On BTK, this compound registered a Dmax above 75%. At BTK (BTK degradation), this compound returned a DC50 above 50 nM.
In the case of `NC(=O)c1c(-c2ccc(Oc3ccccc3)cc2)nn2c1NCC[C@H]2C1CCN(C2CCN(C(=O)N3CCC(CN4CCN(c5ccc6c(c5)CN(C5CCC(=O)NC5=O)C6=O)CC4)CC3)CC2)CC1` (stereo partly drawn) [Compound 390, (7S)-7-(1′-(4-((4-(2-(2,6-dioxopiperidin-3-yl)-1-oxoisoindolin-5-yl)piperazin-1-yl)methyl)piperidine-1-carbonyl)-[1,4′-bipiperidin]-4-yl)-2-(4-phenoxyphenyl)-4,5,6,7-tetrahydropyrazolo[1,5-a]pyrimidine-3-carboxamide], the IC50 was 1000 to 10000 nM in the test on Mino cells and above 10000 nM with JeKo-1 cells. For the same compound, the maximal degradation (Dmax) at BTK is above 90%. At BTK (BTK degradation), this compound showed a 50% degradation concentration (DC50) of 10 to 50 nM.
Turning to `Nc1ncnc2c1c(-c1ccc(Oc3ccccc3)cc1)nn2C1CCN(C2CCN(CC3CN(CC4CN(c5ccc6c(c5)C(=O)N(C5CCC(=O)NC5=O)C6=O)C4)C3)CC2)CC1` (stereo not shown) [Compound 437], the IC50 in the test on Mino cells and in the test with JeKo-1 cells was 1000 to 10000 nM each time. In addition, the “degradation of BTK protein” value at BTK (Namalwa B lymphocyte cells, various concentrations, 24 hours, Western blot) was “dose-dependent degradation”. For the same compound, the half-maximal degradation concentration (DC50) on BTK (setting [1]) was 10 to 50 nM. Moreover, at BTK (setting [2]), the Dmax was above 90%.
For `NC(=O)c1c(-c2ccc(Oc3ccccc3)cc2)nn2c1NCCC2C1CCN(C(=O)N2CCN(CCN3CCC(c4ccc5c(c4)CN(C4CCC(=O)NC4=O)C5=O)CC3)CC2)CC1` (stereo not shown) [Compound 288, 7-(1-(4-(2-(4-(2-(2,6-dioxopiperidin-3-yl)-1-oxoisoindolin-5-yl)piperidin-1-yl)ethyl)piperazine-1-carbonyl)piperidin-4-yl)-2-(4-phenoxyphenyl)-4,5,6,7-tetrahydropyrazolo[1,5-a]pyrimidine-3-carboxamide], the IC50 in the test with Mino cells and in the test on JeKo-1 cells was 1000 to 10000 nM in each case. The compound further had a Dmax at BTK above 75%. Moreover, the DC50 on BTK (BTK degradation) was 10 to 50 nM.
For `Nc1ncnc2c1c(-c1ccc(Oc3ccccc3)cc1)nn2C1CCN(CCN2CCC(Sc3ccc4c(c3)C(=O)N(C3CCC(=O)NC3=O)C4=O)CC2)CC1` (stereo not shown) [Compound 471, 5-((1-(2-(4-(4-amino-3-(4-phenoxyphenyl)-1H-pyrazolo[3,4-d]pyrimidin-1-yl)piperidin-1-yl)ethyl)piperidin-4-yl)thio)-2-(2,6-dioxopiperidin-3-yl)isoindoline-1,3-dione], the IC50 with Mino cells and with JeKo-1 cells was 1000 to 10000 nM each time. Moreover, the DC50 on BTK (setting [1]) was in the range of 10 to 50 nM. For the same compound, on BTK (setting [2]), the Dmax is above 75%.
Turning to `Nc1ncnc2c1c(-c1ccc(Oc3ccccc3)cc1)nn2[C@@H]1CCCN(C(=O)N2CC(N3CCN(c4ccc5c(c4)CN(C4CCC(=O)NC4=O)C5=O)CC3)C2)C1` (stereo partly drawn) [Compound 488, 3-(5-(4-(1-((R)-3-(4-amino-3-(4-phenoxyphenyl)-1H-pyrazolo[3,4-d]pyrimidin-1-yl)piperidine-1-carbonyl)azetidin-3-yl)piperazin-1-yl)-1-oxoisoindolin-2-yl)piperidine-2,6-dione], the IC50 with Mino cells and in the test with JeKo-1 cells was below 1000 nM in each case. For the same compound, the half-maximal degradation concentration (DC50) at BTK (setting [1]) was below 10 nM. Also, on BTK (setting [2]), the greatest degradation seen (Dmax) is above 90%.
`Nc1ncnc2c1c(-c1ccc(Oc3ccccc3)cc1)nn2C1CCN(CC2CCN(CCN3CCN(c4ccc5c(c4)CN(C4CCC(=O)NC4=O)C5=O)CC3)CC2)CC1` (stereo not shown) [Compound 204, 3-(5-(4-(2-(4-((4-(4-amino-3-(4-phenoxyphenyl)-1H-pyrazolo[3,4-d]pyrimidin-1-yl)piperidin-1-yl)methyl)piperidin-1-yl)ethyl)piperazin-1-yl)-1-oxoisoindolin-2-yl)piperidine-2,6-dione]: the figures for the IC50 with Mino cells and with JeKo-1 cells were below 1000 nM and 1000 to 10000 nM, respectively. Further, the Dmax on BTK was above 90%. The DC50 at BTK (BTK degradation) is 10 to 50 nM.
On the same counts, the results for `Nc1ncnc2c1c(-c1ccc(Oc3ccccc3)cc1)nn2C1CCN(C2CCN(C(=O)N3CCN(CC4CCN(c5ccc6c(c5)C(=O)N(C5CCC(=O)NC5=O)C6=O)CC4)CC3)CC2)CC1` (stereo not shown) [Compound 241, 5-(4-((4-(4-(4-amino-3-(4-phenoxyphenyl)-1H-pyrazolo[3,4-d]pyrimidin-1-yl)-[1,4′-bipiperidine]-1′-carbonyl)piperazin-1-yl)methyl)piperidin-1-yl)-2-(2,6-dioxopiperidin-3-yl)isoindoline-1,3-dione] are 1000 to 10000 nM, 1000 to 10000 nM, above 90% and 10 to 50 nM.
Turning to `NC(=O)c1c(-c2ccc(Oc3ccccc3)cc2)nn2c1NCCC2C1CCN(C2CCN(C(=O)N3CCC(CN4CCC(c5ccc6c(c5)CN(C5CCC(=O)NC5=O)C6=O)CC4)CC3)CC2)CC1` (stereo not shown) [Compound 356, 7-(1′-(4-((4-(2-(2,6-dioxopiperidin-3-yl)-1-oxoisoindolin-5-yl)piperidin-1-yl)methyl)piperidine-1-carbonyl)-[1,4′-bipiperidin]-4-yl)-2-(4-phenoxyphenyl)-4,5,6,7-tetrahydropyrazolo[1,5-a]pyrimidine-3-carboxamide], the IC50 is below 1000 nM in the test on Mino cells and 1000 to 10000 nM in the test on JeKo-1 cells. The compound further had a Dmax on BTK above 90%. The compound also gave a half-maximal degradation concentration (DC50) at BTK (BTK degradation) below 10 nM.
Turning to `Nc1ncnc2c1c(-c1ccc(Oc3ccccc3)cc1)nn2C1CCN(CCN2CCC(CSc3ccc4c(c3)CN(C3CCC(=O)NC3=O)C4=O)CC2)CC1` (stereo not shown) [Compound 470, 3-(5-(((1-(2-(4-(4-amino-3-(4-phenoxyphenyl)-1H-pyrazolo[3,4-d]pyrimidin-1-yl)piperidin-1-yl)ethyl)piperidin-4-yl)methyl)thio)-1-oxoisoindolin-2-yl)piperidine-2,6-dione], the results for the IC50 with Mino cells and in the test with JeKo-1 cells were below 1000 nM and 1000 to 10000 nM, respectively. Further, the DC50 on BTK (setting [1]) is below 10 nM. In addition, the Dmax at BTK (setting [2]) was above 90%.
In the case of `Nc1ncnc2c1c(-c1ccc(Oc3ccccc3)cc1)nn2C1CCN(C2CCN(C(=O)N3CCN(CC4CCN(c5ccc6c(c5)CN(C5CCC(=O)NC5=O)C6=O)CC4)CC3)CC2)CC1` (stereo not shown) [Compound 242, 3-(5-(4-((4-(4-(4-amino-3-(4-phenoxyphenyl)-1H-pyrazolo[3,4-d]pyrimidin-1-yl)-[1,4′-bipiperidine]-1′-carbonyl)piperazin-1-yl)methyl)piperidin-1-yl)-1-oxoisoindolin-2-yl)piperidine-2,6-dione], the IC50 in the test on Mino cells was below 1000 nM; in the test with JeKo-1 cells, 1000 to 10000 nM. For the same compound, the Dmax at BTK was above 90%. The compound further came in with a 50% degradation concentration (DC50) at BTK (BTK degradation) below 10 nM.
On to `Nc1ncnc2c1c(-c1ccc(Oc3ccccc3)cc1)nn2C1CCN(CCN2CC(N3CCN(c4ccc5c(c4)C(=O)N(C4CCC(=O)NC4=O)C5=O)CC3)C2)CC1` (stereo not shown) [Compound 463, 5-(4-(1-(2-(4-(4-amino-3-(4-phenoxyphenyl)-1H-pyrazolo[3,4-d]pyrimidin-1-yl)piperidin-1-yl)ethyl)azetidin-3-yl)piperazin-1-yl)-2-(2,6-dioxopiperidin-3-yl)isoindoline-1,3-dione], for which the IC50 with Mino cells and in the test on JeKo-1 cells was below 1000 nM each time. Further, the DC50 at BTK (setting [1]) lay within 10 to 50 nM. Moreover, the Dmax at BTK (setting [2]) was above 90%.
